In publication PMC10010643 (Cancer Chemotherapy and Pharmacology, 2023):

Assay: Safety and tolerability, Part A single ascending-dose phase in healthy participants
Format: in vivo, human
Method: A further two cohorts were recruited. […] Each individual participated in one treatment period only, with the exception of the food-effect cohort (cohort A3) in which there were two treatment periods separated by at least 7 days washout. Participants resided at the Clinical Research Unit (CRU) from 1 day ahead of dosing (day − 1) to day 3 and returned for a follow-up visit 5–7 days after their final dose. For all cohorts, doses were administered in the fasted state in the morning of day 1 of Treatment Period 1. In the food-effect cohort, doses were given 30 min after the start of a high-fat breakfast (973 calories total: approximately 150 protein calories, 250 carbohydrate calories, and 500–600 fat calories) on day 1 of Treatment Period 2. For cohorts A1 to A5 in Treatment Period 1, dosing occurred such that one pair (one active and one placebo) were dosed at least 24 h before the remaining participants. Continuation to dose those who remained was at the investigator’s discretion. Escalating doses were administered following satisfactory sponsor and investigator review of the safety and tolerability data (up to 48 h post-final dose) and PK data (up to 24 h post-final dose) from the lower dose levels.
Safety and tolerability assessments included adverse event (AE) monitoring, physical examinations, laboratory assessments (hematology, clinical chemistry, and urinalysis), vital signs (blood pressure, pulse rate, and body temperature) and ECG.
No formal statistical assessment was performed for the safety analysis.

[1] = Part A 50 mg (1 x 50 mg), fasted

OC[C@H]1O[C@H](Sc2cncc(Br)c2)[C@H](O)[C@@H](n2cc(-c3cc(F)c(F)c(F)c3)nn2)[C@H]1O [GB1211]
Effect of food intake or capsule formulation on TEAEs (Part A): no effect | Participants with a TEAE possibly related to treatment, GB1211 (Part A): 3 | Treatment- or dose-related trend in TEAEs (Part A): no apparent treatment- or dose-related trend | TEAE Back pain, no. of AEs (Part A 5 mg, fasted): 1 | TEAE Back pain, participants (Part A 5 mg, fasted): 1 (16.7%) n (%) | TEAE Constipation, participants (Part A 5 mg, fasted): 0 n (%) | TEAE Cough, participants (Part A 5 mg, fasted): 0 n (%) | TEAE Decreased appetite, participants (Part A 5 mg, fasted): 0 n (%) | TEAE Diarrhea, no. of AEs (Part A 5 mg, fasted): 1 | TEAE Diarrhea, participants (Part A 5 mg, fasted): 1 (16.7%) n (%) | TEAE Dry mouth, participants (Part A 5 mg, fasted): 0 n (%) | TEAE Dry skin, participants (Part A 5 mg, fasted): 0 n (%) | TEAE Dyspepsia, participants (Part A 5 mg, fasted): 0 n (%) | TEAE Gastrointestinal disorders, no. of AEs (Part A 5 mg, fasted): 1 | TEAE Gastrointestinal disorders, participants (Part A 5 mg, fasted): 1 (16.7%) n (%) | TEAE General disorders and administration site conditions, no. of AEs (Part A 5 mg, fasted): 1 | TEAE General disorders and administration site conditions, participants (Part A 5 mg, fasted): 1 (16.7%) n (%) | TEAE Headache, participants (Part A 5 mg, fasted): 0 n (%) | TEAE Infections and infestations, no. of AEs (Part A 5 mg, fasted): 1 | TEAE Infections and infestations, participants (Part A 5 mg, fasted): 1 (16.7%) n (%) | TEAE Injury, poisoning and procedural complications, participants (Part A 5 mg, fasted): 0 n (%) | TEAE Medical device site reaction, no. of AEs (Part A 5 mg, fasted): 1 | TEAE Medical device site reaction, participants (Part A 5 mg, fasted): 1 (16.7%) n (%) | TEAE Metabolism and nutrition disorders, participants (Part A 5 mg, fasted): 0 n (%) | TEAE Musculoskeletal and connective tissue disorders, no. of AEs (Part A 5 mg, fasted): 1 | TEAE Musculoskeletal and connective tissue disorders, participants (Part A 5 mg, fasted): 1 (16.7%) n (%) | TEAE Nasopharyngitis, no. of AEs (Part A 5 mg, fasted): 1 | TEAE Nasopharyngitis, participants (Part A 5 mg, fasted): 1 (16.7%) n (%) | TEAE Nervous system disorders, participants (Part A 5 mg, fasted): 0 n (%) | TEAE Pain, participants (Part A 5 mg, fasted): 0 n (%) | TEAE Rash, participants (Part A 5 mg, fasted): 0 n (%) | TEAE Respiratory, thoracic and mediastinal disorders, participants (Part A 5 mg, fasted): 0 n (%) | TEAE Skin and subcutaneous tissue disorders, participants (Part A 5 mg, fasted): 0 n (%) | TEAE Wound, participants (Part A 5 mg, fasted): 0 n (%) | TEAE Back pain, participants (Part A 20 mg, fasted): 0 n (%) | TEAE Constipation, participants (Part A 20 mg, fasted): 0 n (%) | TEAE Cough, participants (Part A 20 mg, fasted): 0 n (%) | TEAE Decreased appetite, participants (Part A 20 mg, fasted): 0 n (%) | TEAE Diarrhea, participants (Part A 20 mg, fasted): 0 n (%) | TEAE Dry mouth, participants (Part A 20 mg, fasted): 0 n (%) | TEAE Dry skin, participants (Part A 20 mg, fasted): 0 n (%) | TEAE Dyspepsia, participants (Part A 20 mg, fasted): 0 n (%) | TEAE Gastrointestinal disorders, participants (Part A 20 mg, fasted): 0 n (%) | TEAE General disorders and administration site conditions, no. of AEs (Part A 20 mg, fasted): 1 | TEAE General disorders and administration site conditions, participants (Part A 20 mg, fasted): 1 (16.7%) n (%) | TEAE Headache, participants (Part A 20 mg, fasted): 0 n (%) | TEAE Infections and infestations, participants (Part A 20 mg, fasted): 0 n (%) | TEAE Injury, poisoning and procedural complications, participants (Part A 20 mg, fasted): 0 n (%) | TEAE Medical device site reaction, participants (Part A 20 mg, fasted): 0 n (%) | TEAE Metabolism and nutrition disorders, participants (Part A 20 mg, fasted): 0 n (%) | TEAE Musculoskeletal and connective tissue disorders, participants (Part A 20 mg, fasted): 0 n (%) | TEAE Nasopharyngitis, participants (Part A 20 mg, fasted): 0 n (%) | TEAE Nervous system disorders, participants (Part A 20 mg, fasted): 0 n (%) | TEAE Pain, no. of AEs (Part A 20 mg, fasted): 1 | TEAE Pain, participants (Part A 20 mg, fasted): 1 (16.7%) n (%) | TEAE Rash, participants (Part A 20 mg, fasted): 0 n (%) | TEAE Respiratory, thoracic and mediastinal disorders, participants (Part A 20 mg, fasted): 0 n (%) | TEAE Skin and subcutaneous tissue disorders, participants (Part A 20 mg, fasted): 0 n (%) | TEAE Wound, participants (Part A 20 mg, fasted): 0 n (%) | TEAE Back pain, participants [1]: 0 n (%) | TEAE Constipation, participants [1]: 0 n (%) | TEAE Cough, no. of AEs [1]: 1 | TEAE Cough, participants [1]: 1 (16.7%) n (%) | TEAE Decreased appetite, participants [1]: 0 n (%) | TEAE Diarrhea, participants [1]: 0 n (%) | TEAE Dry mouth, participants [1]: 0 n (%) | TEAE Dry skin, participants [1]: 0 n (%) | TEAE Dyspepsia, participants [1]: 0 n (%) | TEAE Gastrointestinal disorders, participants [1]: 0 n (%) | TEAE General disorders and administration site conditions, participants [1]: 0 n (%) | TEAE Headache, participants [1]: 0 n (%) | TEAE Infections and infestations, participants [1]: 0 n (%) | TEAE Injury, poisoning and procedural complications, participants [1]: 0 n (%) | TEAE Medical device site reaction, participants [1]: 0 n (%) | TEAE Metabolism and nutrition disorders, participants [1]: 0 n (%) | TEAE Musculoskeletal and connective tissue disorders, participants [1]: 0 n (%) | TEAE Nasopharyngitis, participants [1]: 0 n (%) | TEAE Nervous system disorders, participants [1]: 0 n (%)
